Data reported in EP2987533B1, “7-substituted piperazin-1-yl fluoroquinolone compounds, their use in the treatment of cancer, pharmaceutical compositions and a method for preparation” (priority 2014, dated 2016).

Tests used:
[1] = tested on: K-562; experiment: NCI one-dose SRB growth assay; format: cell-based; details: Homo sapiens, K562; K-562 (Leukemia), 10^-5 M, 48 h; read-out: % Growth Inhibition (GI %)
Description: (§1) A primary anticancer assay was performed for an approximately 60 human tumor cell line panel derived from nine neoplastic diseases, in accordance with the protocol of the Drug Evaluation Branch, National Cancer Institute, Bethesda, MD (Monks A. et al., J. Natl. Cancer Inst 1991, 83, 757-766; Boyd M.R. and Paull K.D., Drug. Dev. Res. 1995, 34, 91-109; Shoemaker R.H., Nat. Rev. Cancer 2006, 6, 813-823). Briefly, tested compounds were added to the culture at a single concentration (10^-5M), and the cultures were incubated for 48 h. End point determinations were made with a protein binding dye, sulforhodamine B (SRB). The results for each tested compound were reported as the growth percentage of the treated cells when compared to that of the untreated control cells. The percentage growth was evaluated spectrophotometrically versus controls not treated with test agents.

[2] = tested on: NCI-H522; experiment: NCI one-dose SRB growth assay; format: cell-based; details: Homo sapiens; NCI-H522 (Non-Small Cell Lung Cancer), 10^-5 M, 48 h; read-out: % Growth Inhibition (GI %)
Description: as §1

[3] = tested on: M14; experiment: NCI one-dose SRB growth assay; format: cell-based; details: Homo sapiens; M14 (Melanoma), 10^-5 M, 48 h; read-out: % Growth Inhibition (GI %)
Description: as §1

[4] = tested on: SF-539; experiment: NCI one-dose SRB growth assay; format: cell-based; details: Homo sapiens; SF-539 (CNS Cancer), 10^-5 M, 48 h; read-out: % Growth Inhibition (GI %)
Description: as §1

[5] = tested on: A498; experiment: NCI one-dose SRB growth assay; format: cell-based; details: Homo sapiens; A498 (Renal Cancer), 10^-5 M, 48 h; read-out: % Growth Inhibition (GI %)
Description: as §1

[6] = tested on: MCF7; experiment: NCI one-dose SRB growth assay; format: cell-based; details: Homo sapiens; MCF7 (Breast Cancer), 10^-5 M, 48 h; read-out: % Growth Inhibition (GI %)
Description: as §1

[7] = tested on: OVCAR-4; experiment: NCI one-dose SRB growth assay; format: cell-based; details: Homo sapiens; OVCAR-4 (Ovarian Cancer), 10^-5 M, 48 h; read-out: % Growth Inhibition (GI %)
Description: as §1

[8] = tested on: CAKI-1; experiment: NCI one-dose SRB growth assay; format: cell-based; details: Homo sapiens; CAKI-1 (Renal Cancer), 10^-5 M, 48 h; read-out: % Growth Inhibition (GI %)
Description: as §1

[9] = tested on: OVCAR-8; experiment: NCI one-dose SRB growth assay; format: cell-based; details: Homo sapiens; OVCAR-8 (Ovarian Cancer), 10^-5 M, 48 h; read-out: % Growth Inhibition (GI %)
Description: as §1

[10] = tested on: 786-0; experiment: NCI one-dose SRB growth assay; format: cell-based; details: Homo sapiens; 786-0 (Renal Cancer), 10^-5 M, 48 h; read-out: % Growth Inhibition (GI %)
Description: as §1

[11] = tested on: NCI-H322M; experiment: NCI one-dose SRB growth assay; format: cell-based; details: Homo sapiens; NCI-H322M (Non-Small Cell Lung Cancer), 10^-5 M, 48 h; read-out: % Growth Inhibition (GI %)
Description: as §1

[12] = tested on: MDA-MB-231/ATCC; experiment: NCI one-dose SRB growth assay; format: cell-based; details: Homo sapiens; MDA-MB- 231/ATCC (Breast Cancer), 10^-5 M, 48 h; read-out: % Growth Inhibition (GI %)
Description: as §1

[13] = tested on: SK-OV-3; experiment: NCI one-dose SRB growth assay; format: cell-based; details: Homo sapiens; SK-OV-3 (Ovarian Cancer), 10^-5 M, 48 h; read-out: % Growth Inhibition (GI %)
Description: as §1

[14] = tested on: SN12C; experiment: NCI one-dose SRB growth assay; format: cell-based; details: Homo sapiens; SN12C (Renal Cancer), 10^-5 M, 48 h; read-out: % Growth Inhibition (GI %)
Description: as §1

[15] = tested on: HOP-62; experiment: NCI one-dose SRB growth assay; format: cell-based; details: Homo sapiens; HOP-62 (Non-Small Cell Lung Cancer), 10^-5 M, 48 h; read-out: % Growth Inhibition (GI %)
Description: as §1

[16] = tested on: SF-268; experiment: NCI one-dose SRB growth assay; format: cell-based; details: Homo sapiens; SF-268 (CNS Cancer), 10^-5 M, 48 h; read-out: % Growth Inhibition (GI %)
Description: as §1

[17] = tested on: COLO 205; experiment: NCI one-dose SRB growth assay; format: cell-based; details: Homo sapiens; COLO 205 (Colon Cancer), 10^-5 M, 48 h; read-out: % Growth Inhibition (GI %)
Description: as §1

[18] = tested on: NCI/ADR-RES; experiment: NCI one-dose SRB growth assay; format: cell-based; details: Homo sapiens; NCI/ADR-RES (Ovarian Cancer), 10^-5 M, 48 h; read-out: % Growth Inhibition (GI %)
Description: as §1

[19] = tested on: ACHN; experiment: NCI one-dose SRB growth assay; format: cell-based; details: Homo sapiens; ACHN (Renal Cancer), 10^-5 M, 48 h; read-out: % Growth Inhibition (GI %)
Description: as §1

[20] = tested on: T-47D; experiment: NCI one-dose SRB growth assay; format: cell-based; details: Homo sapiens, T47D; T-47D (Breast Cancer), 10^-5 M, 48 h; read-out: % Growth Inhibition (GI %)
Description: as §1

[21] = tested on: BT-549; experiment: NCI one-dose SRB growth assay; format: cell-based; details: Homo sapiens; BT-549 (Breast Cancer), 10^-5 M, 48 h; read-out: % Growth Inhibition (GI %)
Description: as §1

[22] = tested on: SNB-75; experiment: NCI one-dose SRB growth assay; format: cell-based; details: Homo sapiens; SNB-75 (CNS Cancer), 10^-5 M, 48 h; read-out: % Growth Inhibition (GI %)
Description: as §1

[23] = tested on: 60 human tumor cell line panel; experiment: NCI 60 cell line one-dose SRB primary anticancer assay; format: cell-based; details: 60 cell lines assay in one dose, 10µM (title; head prints 10.0 mM), 48 h; for inhibition at 10 µM: Homo sapiens, read-out: MGI % (Mean growth inhibition percentage)
Description: as §1

[24] = tested on: renal cancer; experiment: NCI five-dose SRB assay, subpanel average; details: 48 h
[25] = tested on: colon cancer; experiment: NCI five-dose SRB assay, subpanel average; details: 48 h
[26] = tested on: ovarian cancer; experiment: NCI five-dose SRB assay, subpanel average; details: 48 h
[27] = Homo sapiens, read-out: GI50 (median growth inhibitory)
[28] = Homo sapiens, read-out: LC50 (median lethal)

Row | SMILES | inhibition at 10 µM [1] | inhibition at 10 µM [2] | inhibition at 10 µM [3] | inhibition at 10 µM [4] | inhibition at 10 µM [5] | inhibition at 10 µM [6] | inhibition at 10 µM [7] | inhibition at 10 µM [8] | inhibition at 10 µM [9] | inhibition at 10 µM [10] | inhibition at 10 µM [11] | inhibition at 10 µM [12] | inhibition at 10 µM [13] | inhibition at 10 µM [14] | inhibition at 10 µM [15] | inhibition at 10 µM [16] | inhibition at 10 µM [17] | inhibition at 10 µM [18] | inhibition at 10 µM [19] | inhibition at 10 µM [20] | further results
1 | O=C(O)c1cn(C2CC2)c2cc(N3CCN(S(=O)(=O)c4ccc(Cl)cc4Cl)CC3)c(F)cc2c1=O [Compound 2b] | < 10% | < 10% | < 10% | < 10% | 23.6% | 82.4% | 35.9% | 12.1% | < 10% | < 10% | 12.8% | < 10% | < 10% | 13.8% | 11.8% | 16.4% | 11.9% | < 10% | 14.9% | 26.4% | inhibition at 10 µM [21]: 13.7%; inhibition at 10 µM [22]: 70.2%; PCE (Positive cytotoxic effect: ratio between number of cell lines with percentage growth inhibition from 10 to >100 and total number of cell lines) [23]: 30/58; RGI % (Range of growth inhibition percentage) [23]: 79.75 to 11.78%; inhibition at 10 µM [23]: 17.4%
2 | Cc1cc(C)c(S(=O)(=O)N2CCN(c3cc4c(cc3F)c(=O)c(C(=O)O)cn4C3CC3)CC2)c(C)c1 [Compound 6b] | 36.5% | 32.7% | 36.5% | 53.5% | 37% | 46% | 24.4% | 32.9% | 40.5% | 24.4% | 25.3% | 15.4% | 18.4% | 86.1% | 42.7% | 43.3% | 42.4% | 30.1% | 48.7% | 37% | inhibition at 10 µM [21]: 22.7%; inhibition at 10 µM [22]: 63.4%; GI50 [24, 27]: 2.78 µM; CC50 [24, 28]: > 100 µM; TGI (total growth inhibitory) ([24]; average over renal cancer subpanel, five concentrations): c (Compounds showed values > 100µM); GI50 [25, 27]: 3.46 µM; CC50 [25, 28]: > 100 µM; TGI (total growth inhibitory) ([25]; average over colon cancer subpanel, five concentrations): c (Compounds showed values > 100µM); PCE (Positive cytotoxic effect: ratio between number of cell lines with percentage growth inhibition from 10 to >100 and total number of cell lines) [23]: 56/58; RGI % (Range of growth inhibition percentage) [23]: 91.28 to 13.08%; inhibition at 10 µM [23]: 43.8%; GI50 [26, 27]: 2.89 µM; CC50 [26, 28]: > 100 µM; TGI (total growth inhibitory) ([26]; average over ovarian cancer subpanel, five concentrations): c (Compounds showed values > 100µM)
